Measured values published in article PMC7960626, “Phase I study assessing the mass balance, pharmacokinetics, and excretion of [^14C]-pevonedistat, a NEDD8-activating enzyme inhibitor in patients with advanced solid tumors” (Investigational New Drugs, 2020).
Where two headings read alike, the source gives them in different places.

How the values were obtained:
[1] = test system: tumor cell lines including solid tumors (colon, lung) and hematological malignancies (myeloma, lymphoma); set-up: method as in PMID 19509147, PMID 20525923, PMID 20203261; details: preclinical studies; cited from earlier work
[2] = Safety (TEAEs) of pevonedistat days 1, 3, 5 plus carboplatin/paclitaxel or docetaxel in 3-week cycles (part B); assay type: in vivo, human; details: for On-study deaths, patients: part B, Total (N = 7)
Procedure: (§1) This was a two-part (A and B), open-label, multicenter, mass balance, distribution, metabolism, excretion (DME) study in adult patients with advanced solid tumors. In part A, patients received a single IV infusion of [^14C]-pevonedistat 25 mg/m^2 (containing approximately 60–85 µCi, or 2.22–3.145 MBq, of total radioactivity) at a single center (Duna Medical Center, Budapest, Hungary). Patients were required to stay at the part A study site for approximately 8 days or until the discharge criteria were met, with a maximum estimated confinement period of 9–14 days. Upon completion of part A, patients had the option to participate in part B at Medical Center Hungarian Defense Forces, Budapest, Hungary. In part B, patients received treatment in 3-week cycles with either: pevonedistat 20 mg/m^2 on days 1, 3, and 5 plus carboplatin AUC5 and paclitaxel 175 mg/m^2 on day 1; or pevonedistat 25 mg/m^2 on days 1, 3, and 5 plus docetaxel 75 mg/m^2 on day 1. Treatment was administered for 12 cycles or until discontinuation criteria were met.
(§2) Blood samples were collected for total radioactivity and PK assessments in whole blood and plasma at prespecified time points (pre dose [within 1 h before the start of the pevonedistat infusion], end of infusion, then 0.5, 1, 2, 3, 4, 8, 12, 24, 48, 72, 96, 120, 144 and 168 hours post dose). Complete urinary and fecal output were collected for analysis of PK (urine) and total radioactivity (urine and feces) throughout the confinement period until discharge criteria were met. Bioanalytical assay methods are shown in the Supplementary Methods. Safety was assessed by incidence and severity of TEAEs, vital signs, physical examinations, electrocardiograms, and clinical laboratory tests, and toxicities were graded according to the National Cancer Institute Common Terminology Criteria for Adverse Events (NCI CTCAE), version 4.03. In part B, disease assessments were conducted using radiological evaluations (computed tomography [CT] scan or magnetic resonance imaging [MRI], as clinically indicated).
PK data were summarized using descriptive statistics, and the PK and mass balance parameters described in Supplementary Table S1 were calculated by non-compartmental analysis for each individual patient. Safety was assessed in all patients who received at least one dose of pevonedistat, and TEAEs were coded according to the Medical Dictionary for Regulatory Activities (MedDRA), version 20.0. Analysis of efficacy in part B was descriptive; disease response was assessed in all patients who received at least one dose of pevonedistat, had measurable disease (per entry criteria for part B), and had at least one post-baseline disease assessment. Response assessment was done by the investigator using Response Evaluation Criteria in Solid Tumors (RECIST) version 1.1. SAS version 9.4 was used for all statistical analyses.

advanced solid tumors [3] = test system: advanced solid tumors; set-up: method as in PMID 29781056; details: cited from earlier work
advanced solid tumors [4] = assay: Disease response by RECIST version 1.1 (part B); assay type: in vivo, human; details: 7 patients evaluable, with carboplatin/paclitaxel or docetaxel
Procedure: as §1
as §2, with “In part B, disease assessments were conducted using radiological evaluations (computed tomography [CT] scan or magnetic resonance imaging [MRI], as clinically indicated).” left out
PK data were summarized using descriptive statistics, and the PK and mass balance parameters described in Supplementary Table S1 were calculated by non-compartmental analysis for each individual patient. […]

[5] = human, in vivo, 12 3-week cycles
[6] = in combination with carboplatin plus paclitaxel

NS(=O)(=O)OC[C@@H]1C[C@@H](n2ccc3c(N[C@H]4CCc5ccccc54)ncnc32)C[C@@H]1O [Pevonedistat]
antitumor activity in cell lines [1]: growth inhibition
Abdominal distension, All Grades ([2]; human, in vivo): 1 (14.3) n (%)
Abdominal distension, Grade ≥ 3 ([2]; human, in vivo): 0 n (%)
Abdominal pain upper, All Grades ([2]; human, in vivo): 1 (14.3) n (%)
Abdominal pain upper, Grade ≥ 3 ([2]; human, in vivo): 0 n (%)
Abdominal pain, All Grades ([2]; human, in vivo): 1 (14.3) n (%)
Abdominal pain, Grade ≥ 3 ([2]; human, in vivo): 0 n (%)
Alopecia, All Grades ([2]; human, in vivo): 1 (14.3) n (%)
Alopecia, Grade ≥ 3 ([2]; human, in vivo): 0 n (%)
Arthralgia, All Grades ([2]; human, in vivo): 1 (14.3) n (%)
Arthralgia, Grade ≥ 3 ([2]; human, in vivo): 0 n (%)
Asthenia, All Grades ([2]; human, in vivo): 3 patients (42.9%) n (%)
Back pain, All Grades ([2]; human, in vivo): 1 (14.3) n (%)
Back pain, Grade ≥ 3 ([2]; human, in vivo): 0 n (%)
Blood bilirubin increased, All Grades ([2]; human, in vivo): 1 (14.3) n (%)
Blood bilirubin increased, Grade ≥ 3 ([2]; human, in vivo): 0 n (%)
Blood creatinine increased, All Grades ([2]; human, in vivo): 1 (14.3) n (%)
Blood creatinine increased, Grade ≥ 3 ([2]; human, in vivo): 0 n (%)
Blood urea increased, All Grades ([2]; human, in vivo): 1 (14.3) n (%)
Blood urea increased, Grade ≥ 3 ([2]; human, in vivo): 0 n (%)
Bone pain, All Grades ([2]; human, in vivo): 1 (14.3) n (%)
Bone pain, Grade ≥ 3 ([2]; human, in vivo): 0 n (%)
Chest pain, All Grades ([2]; human, in vivo): 1 (14.3) n (%)
Chest pain, Grade ≥ 3 ([2]; human, in vivo): 0 n (%)
Chills, All Grades ([2]; human, in vivo): 1 (14.3) n (%)
Chills, Grade ≥ 3 ([2]; human, in vivo): 0 n (%)
Conjunctival hemorrhage, All Grades ([2]; human, in vivo): 1 (14.3) n (%)
Conjunctival hemorrhage, Grade ≥ 3 ([2]; human, in vivo): 0 n (%)
Diarrhea, All Grades ([2]; human, in vivo): 3 patients (42.9%) n (%)
Dyspnea, All Grades ([2]; human, in vivo): 1 (14.3) n (%)
Dyspnea, Grade ≥ 3 ([2]; human, in vivo): 0 n (%)
Edema peripheral, All Grades ([2]; human, in vivo): 1 (14.3) n (%)
Edema peripheral, Grade ≥ 3 ([2]; human, in vivo): 0 n (%)
Fibrosarcoma, All Grades ([2]; human, in vivo): 1 (14.3) n (%)
Fibrosarcoma, Grade ≥ 3 ([2]; human, in vivo): 1 (14.3) n (%)
General physical health deterioration, All Grades ([2]; human, in vivo): 1 (14.3) n (%)
General physical health deterioration, Grade ≥ 3 ([2]; human, in vivo): 1 (14.3) n (%)
Grade ≥ 3 drug-related decreased platelet count ([2]; human, in vivo): 1 patient
Grade ≥ 3 drug-related increased ALT and AST ([2]; human, in vivo): 1 patient
Leukocytosis, All Grades ([2]; human, in vivo): 1 (14.3) n (%)
Leukocytosis, Grade ≥ 3 ([2]; human, in vivo): 0 n (%)
Leukopenia, All Grades ([2]; human, in vivo): 1 (14.3) n (%)
Leukopenia, Grade ≥ 3 ([2]; human, in vivo): 0 n (%)
Mueller’s mixed tumor, All Grades ([2]; human, in vivo): 1 (14.3) n (%)
Mueller’s mixed tumor, Grade ≥ 3 ([2]; human, in vivo): 0 n (%)
Nausea, All Grades ([2]; human, in vivo): 3 patients (42.9%) n (%)
Pain, Grade ≥ 3 ([2]; human, in vivo): 0 n (%)
Peripheral venous disease, All Grades ([2]; human, in vivo): 1 (14.3) n (%)
Peripheral venous disease, Grade ≥ 3 ([2]; human, in vivo): 0 n (%)
Platelet count decreased, All Grades ([2]; human, in vivo): 1 (14.3) n (%)
Platelet count decreased, Grade ≥ 3 ([2]; human, in vivo): 1 (14.3) n (%)
Pneumonia, All Grades ([2]; human, in vivo): 1 (14.3) n (%)
Pneumonia, Grade ≥ 3 ([2]; human, in vivo): 1 (14.3) n (%)
Pyrexia, All Grades ([2]; human, in vivo): 2 (28.6) n (%)
Pyrexia, Grade ≥ 3 ([2]; human, in vivo): 0 n (%)
Rash, All Grades ([2]; human, in vivo): 1 (14.3) n (%)
Rash, Grade ≥ 3 ([2]; human, in vivo): 0 n (%)
Serious TEAEs, patients ([2]; human, in vivo): Three patients (42.9%) n (%)
Spinal compression fracture, All Grades ([2]; human, in vivo): 1 (14.3) n (%)
Spinal compression fracture, Grade ≥ 3 ([2]; human, in vivo): 0 n (%)
Swelling, All Grades ([2]; human, in vivo): 1 (14.3) n (%)
Swelling, Grade ≥ 3 ([2]; human, in vivo): 0 n (%)
TEAEs, patients ([2]; human, in vivo): 7 n (%)
TEAEs: Drug-related (any drug of the combination), patients ([2]; human, in vivo): 6 patients (85.7%) n (%)
TEAEs: Grade ≥ 3, patients ([2]; human, in vivo): Four patients (57.1%) n (%)
TEAEs: Grade ≥ 3 drug-related, patients ([2]; human, in vivo): 2 n (%)
Upper respiratory tract infection, All Grades ([2]; human, in vivo): 1 (14.3) n (%)
Upper respiratory tract infection, Grade ≥ 3 ([2]; human, in vivo): 0 n (%)
Vomiting, All Grades ([2]; human, in vivo): 4 patients (57.1%) n (%)
Weight decreased, All Grades ([2]; human, in vivo): 1 (14.3) n (%)
Weight decreased, Grade ≥ 3 ([2]; human, in vivo): 0 n (%)
ALT increased, All Grades [2, 5]: 2 (28.6) n (%)
ALT increased, Grade ≥ 3 [2, 5]: 1 (14.3) n (%)
AST increased, All Grades [2, 5]: 2 (28.6) n (%)
AST increased, Grade ≥ 3 [2, 5]: 1 (14.3) n (%)
Anemia, All Grades [2, 5]: 2 (28.6) n (%)
Anemia, Grade ≥ 3 [2, 5]: 0 n (%)
Asthenia, All Grades [2, 5]: 3 (42.9) n (%)
Asthenia, Grade ≥ 3 [2, 5]: 0 n (%)
Diarrhea, All Grades [2, 5]: 3 (42.9) n (%)
Diarrhea, Grade ≥ 3 [2, 5]: 0 n (%)
Fatigue, All Grades [2, 5]: 2 (28.6) n (%)
Fatigue, Grade ≥ 3 [2, 5]: 0 n (%)
Nausea, All Grades [2, 5]: 3 (42.9) n (%)
Nausea, Grade ≥ 3 [2, 5]: 0 n (%)
Pain, All Grades [2, 5]: 2 (28.6) n (%)
Serious TEAEs, patients [2, 5]: 3 (42.9) n (%)
Serious TEAEs: Drug-related, patients [2, 5]: 0 n (%)
Serious TEAEs: Resulting in study discontinuation, patients [2, 5]: 1 (14.3) n (%)
TEAEs, patients [2, 5]: 7 (100.0) n (%)
TEAEs: Drug-related (any drug of the combination), patients [2, 5]: 6 (85.7) n (%)
TEAEs: Grade ≥ 3, patients [2, 5]: 4 (57.1) n (%)
TEAEs: Grade ≥ 3 drug-related, patients [2, 5]: 2 (28.6) n (%)
TEAEs: Resulting in study drug discontinuation, patients [2, 5]: 1 (14.3) n (%)
Thrombocytopenia, All Grades [2, 5]: 2 (28.6) n (%)
Thrombocytopenia, Grade ≥ 3 [2, 5]: 0 n (%)
Vomiting, All Grades [2, 5]: 4 (57.1) n (%)
Vomiting, Grade ≥ 3 [2, 5]: 0 n (%)
Oral herpes, All Grades ([2]; human, in vivo, po): 1 (14.3) n (%)
Oral herpes, Grade ≥ 3 ([2]; human, in vivo, po): 0 n (%)
Serious TEAEs: Drug-related, patients ([2]; in vivo): none of which were considered related to treatment
On-study deaths, patients [2]: 2 (28.6) n (%)
On-study deaths, patients ([2]; listed as pevonedistat): Two
maximum tolerated dose (MTD) (advanced solid tumors [3]; [6]): 20 mg/m^2
overall response rate [ORR] (advanced solid tumors [3]; [6]): 35%
maximum tolerated dose (MTD) (advanced solid tumors [3]; in combination with docetaxel): 25 mg/m^2
overall response rate [ORR] (advanced solid tumors [3]; in combination with docetaxel): 16%
best response of partial response (advanced solid tumors [4]): One
best response of stable disease (advanced solid tumors [4]): 5 patients
progressive disease (advanced solid tumors [4]): remaining patient
